Reference: patent US9670242B2, “Tetracyclic anthraquinone derivatives” (Tianjin Hemay Bio-Tech Co., Ltd, priority 2012, dated 2017)

Legend:
A431 cells = experiment: A431 cell growth inhibition test (MTT assay); format: cell-based, human; conditions: 72 h
Experimental: A431 Cell Growth Inhibition Test (MTT Assay)
(§1) II. Reagents and Consumable Materials
Culture medium: 45% DMEM+45% F12+10% FBS (fetal calf serum); Pancreatin (0.25% (w/v) solution was formulated with PBS, 0.53 mM of EDTA was added in the formulation); PBS; 96-well culture plate.
(§2) 1. A plate (10 cm) of cells in logarithmic growth phase that were normally cultured was collected;
(§3) 2. The culture solution was sucked out. The plate was washed with 5 mL of PBS once or twice;
(§4) 3. PBS was sucked out. 1.5 mL of 0.25% pancreatin was added to the plate to infiltrate the cells for 1 min;
4. The culture plate was placed in an incubator. Digestion was carried out for about 5 min at 37° C.;
(§5) 5. 3 mL of complete culture solution was added to the culture plate to stop the digestion. The cells were carefully scoured with micropipette (1 mL) to give a uniform cell suspension. The suspension was implanted into a 96-well cell culture disc by 2500 cells/100 μL per well. The culture plate was incubated overnight under 5% CO2 at 37° C. In day 2, 100 μL of culture solution comprising a compound was added in each well. The plate was further incubated for 72 h under 5% CO2 at 37° C.;
(§6) 6. The culture solution was sucked out;
(§7) 7. 100 μL of serum-free culture solution containing 0.5 mg/mL MTT was added in each well. The plate was incubated for 3 h;
(§8) 8. The culture solution was carefully sucked out;
(§9) 9. 100 μL of DMSO was added in each well and vibrated to dissolve;
(§10) 10. OD values were determined at 490 nM.
(§11) IV. Results and Treatments
(§12) 1. Calculation of Relative Inhibition Ratio The inhibition ratio of a compound on cell growth=(PC−n)/(PC−NC)×100%
(§13) PC: OD values of cells after normal growth in control wells without a compound;
(§14) n: OD values of cells after growth in test wells with a compound;
(§15) NC: Background OD values of blank wells without a compound and cells.

DU-145 cells = experiment: DU-145 cell growth inhibition test (MTT assay); format: cell-based; conditions: 72 h
Experimental: DU-145 Cell Growth Inhibition Test (MTT Assay)
as §1
Culture medium: 90% EMEM+10% FBS (fetal calf serum); Pancreatin (0.25% (w/v) solution was formulated with PBS, 0.53 mM of EDTA was added in the formulation); PBS; 96-well culture plate.
as §2, §3, §4
4. The culture plate was placed in an incubator. Digestion was carried out for about 1 min at 37° C.;
as §5, with “4000” for “2500”
as §6, §7, §8, §9, §10, §11, §12, §13, §14, §15

SK-OV-3 cells = experiment: SK-OV-3 cell growth inhibition test (MTT assay); format: cell-based, human; conditions: growth inhibition at 667 nM, 69 h
Method in brief: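 Human ovarian SK-OV-3 cells, 4000 per well in McCoy's 5A with 10% FBS, rested overnight, then grown 69 h with compound at 37 °C, 5% CO2. MTT (0.5 mg/mL, 3 h), DMSO solubilisation, OD at 490 nm; inhibition ratio computed against untreated and blank wells.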

NCI-H446 cells = experiment: NCI-H446 cell growth inhibition test (MTT assay); format: cell-based, human; conditions: growth inhibition at 222 nM, 70 h
Method in brief: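 Human small cell lung cancer cells in RPMI-1640 with 10% FBS were seeded at 4000 per well and treated with compound for 70 h at 37° C, 5% CO2. MTT at 0.5 mg/mL was added for 3 h, formazan was dissolved in DMSO and OD read at 490 nm. Inhibition ratio was calculated against untreated and blank wells.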

22Rv1 cells = experiment: 22Rv1 cell growth inhibition test (SRB assay); format: cell-based, human; conditions: growth inhibition at 222 nM, 73 h
Method in brief: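 Human prostate cancer 22Rv1 cells seeded at 7000 cells/well, incubated overnight, then exposed to compound for 73 h at 37° C, 5% CO2. TCA-fixed cells stained with SRB, dye dissolved in 10 mM Tris, OD read at 570 nm. Inhibition = (PC−n)/(PC−NC)×100% against untreated and cell-free blank wells.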

SMILES	IC50 (A431 cells)	IC50 (DU-145 cells)	Inhibition Ratio (%) (SK-OV-3 cells)	Inhibition Ratio (%) (NCI-H446 cells)	Inhibition Ratio (%) (22Rv1 cells)
COc1cccc2c1C(=O)c1c(O)c3c(c(O)c1C2=O)CC(O)(C(=O)COC(=O)CCC(=O)O)CC3OC1CC(n2cccc2)C(O)C(C)O1 (stereo not shown) [Compound A, 3′-pyrrolyldoxorubicin-14-oxo-succinic acid monoester, reference compound]	68 nM	99 nM	–	–	–
COc1cccc2c1C(=O)c1c(O)c3c(c(O)c1C2=O)CC(O)(C(=O)COC(=O)CCC(=O)NCCOCCO)CC3OC1CC(n2cccc2)C(O)C(C)O1 (stereo not shown) [Example 62]	–	34 nM	63.6%	64.6%	57%
CC(=O)O.COc1cccc2c1C(=O)c1c(O)c3c(c(O)c1C2=O)CC(O)(C(=O)COC(=O)CCC(=O)NCCCN1CCN(C)CC1)CC3O[C@H]1C[C@H](n2cccc2)[C@H](O)[C@H](C)O1 (stereo partly drawn) [Example 81, 10-((3′-(pyrrol-1-yll)-2′,3′,6′-trideoxy-alphal-l-lyxo-hexylpyranyl)oxy)-7,8,9,10-tetrahydro-6,8,11-trihydroxy-13-oxo-14-(4-((3-(4-methylpiperazin-1-yl)propyl)amino)-4-oxo-butyrato)-1-methoxy-5,12-naphthalenedione acetate]	42 nM	–	56.4%	56.8%	56.5%
